The EC50 is the concentration at which the effect is half-maximal. Broadly, the Kd is the constant that tells how readily two partners part at equilibrium.

SMILES strings stand for the structures.

The target in one assay is T1, hSTING-HAQ haplotype (Homo sapiens, UniProt Q86WV6, G230A/H232R/R293Q/R71H).
T1 construct: host or cells: THP-1-Dual
Kind of assay: THP-1-Dual reporter assay (endogenous hSTING-HAQ). The class given is cell-based. Particulars: THP-1-Dual cells (hSTING-HAQ), 24 hours. As for the experimental part:
(§1) The activities of the STING agonists to activate human or mouse STING pathways were evaluated in THP-1-Dual™, THP1-Dual™ KI-hSTING-R232, THP1-Dual™ KI-hSTING-H232 Cells and THP1-Dual™ KI-mSTING Cells. THP-1-Dual™ cells contains hSTING-HAQ haplotype and can be used to evaluate the activity of STING agonists by monitoring the activation of NF-κB pathway and the […] (IFN regulatory factor) pathways. THP1-Dual™ KO-STING cells were generated from THP1-Dual™ cells by stable knockout of the endogenous HAQ STING gene. THP1-Dual™ KI-hSTING-R232 cells, THP1-Dual™ KI-hSTING-H232 cells and THP1-Dual™ KI-mSTING cells were generated by transfecting THP1-Dual™ KO-STING cells with hSTING-R232 or hSTING-H232 or mSTING. Stimulating these reporter cells with a STING agonist activates TRF pathway and induces the production of a secreted Lucia luciferase in the cell culture medium, which can be determined using QUANTI-Luc™ reagent.
(§2) THP-1-Dual™, THP1-Dual™ KI-hSTING-R232, THP1-Dual™ KI-hSTING-H232 and THP1-Dual™ KI-mSTING reporter cells were purchased from Invivogen and maintained in manufacture recommended culture medium with required supplemental antibiotics. On the day of assay, the cells were harvested with Accutase and counted by the Vi-CELL Cell Viability Analyzers. Cells were resuspended in HEK blue detection medium and a total of 10000 cells were seeded in each well of a 384-well flat bottom plate. […] After incubation at 37° C. in a CO2 incubator for 24 hours, 20 μl of cell culture medium per well was transferred into a 384-well white (opaque) plate. 50 μl of QUANTI-Luc™ assay solution was then added to each well and the plate was immediately transferred to an ENVISION® plate reader to measure luminescence (Perkin-Elmer). Relative luminescence readings were converted to fold change of signal using untreated cells as controls. Data was fitted with non-linear regression analysis, using log (agonist) vs. response, variable slope, 4-parameter fit equation using GraphPad Prism. Data was expressed as fold change in signal vs. dose of STING agonist in nM with error bars indicating the Standard Deviation (SD) of the quadruplicates. There result was reported in Table 2 as EC50 (the midpoint of the curve, or concentration at which […] of the maximum effect was observed).
A general note: In a reporter assay the amount or activity of a reporter protein is the signal.

The next assay has as its target T2, hSTING-R232 (Homo sapiens, UniProt Q86WV6, H232R).
T2 construct: host or cells: THP1-Dual KI-hSTING-R232 (from THP1-Dual KO-STING)
Description: THP1-Dual KI-hSTING-R232 reporter assay (IRF pathway, secreted Lucia luciferase). Conditions: THP1-Dual KI-hSTING-R232 cells, 24 hours; read-out: Reporter assay EC50 (nM) THP-1-R232. The class given is cell-based. How it is done:
as §1, §2

In another assay the target is hSTING WT (Homo sapiens, UniProt Q86WV6). Kind of assay: Surface plasmon resonance, hSTING WT. It is filed as binding. Particulars: read-out: hSTING WT SPR (Kd). (In SPR one partner is held on a chip, and binding of the other changes the refractive index at the surface.)
Chain of hSTING WT (Q86WV6 whole entry H232R): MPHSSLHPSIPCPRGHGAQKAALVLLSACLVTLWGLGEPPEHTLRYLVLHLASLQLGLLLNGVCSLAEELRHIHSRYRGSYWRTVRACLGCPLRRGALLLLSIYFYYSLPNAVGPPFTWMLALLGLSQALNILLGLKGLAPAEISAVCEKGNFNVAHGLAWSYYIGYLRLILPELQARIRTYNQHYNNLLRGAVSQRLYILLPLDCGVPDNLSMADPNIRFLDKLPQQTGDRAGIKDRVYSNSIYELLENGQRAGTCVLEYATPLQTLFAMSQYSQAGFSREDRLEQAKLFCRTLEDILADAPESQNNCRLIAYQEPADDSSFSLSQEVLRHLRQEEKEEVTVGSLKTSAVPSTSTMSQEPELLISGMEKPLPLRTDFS
A further assay addresses T3, mSTING (Mus musculus, UniProt Q3TBT3).
T3 sequence (Q3TBT3 1-378): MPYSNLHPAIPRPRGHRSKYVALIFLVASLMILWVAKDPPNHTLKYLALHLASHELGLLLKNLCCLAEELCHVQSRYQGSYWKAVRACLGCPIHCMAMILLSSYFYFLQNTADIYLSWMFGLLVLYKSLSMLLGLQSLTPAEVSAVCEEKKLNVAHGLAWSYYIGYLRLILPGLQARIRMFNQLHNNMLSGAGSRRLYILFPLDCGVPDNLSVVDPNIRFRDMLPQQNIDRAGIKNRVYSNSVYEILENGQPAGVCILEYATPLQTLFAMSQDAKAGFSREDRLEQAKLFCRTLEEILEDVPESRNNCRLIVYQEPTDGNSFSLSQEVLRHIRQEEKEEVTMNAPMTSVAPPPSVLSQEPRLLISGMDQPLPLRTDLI
Description: THP1-Dual KI-mSTING reporter assay. The class given is cell-based. Details: host or cells: THP1-Dual KI-mSTING (from THP1-Dual KO-STING). Conditions: THP1-Dual KI-mSTING cells, 24 hours; read-out: Reporter assay EC50 (nM) THP-1 mSTING. How it is done:
as §1
THP-1-Dual™, THP1-Dual™ KI-hSTING-R232, THP1-Dual™ KI-hSTING-H232 and THP1-Dual™ KI-mSTING reporter cells were purchased from Invivogen and maintained in manufacture recommended culture medium with required supplemental antibiotics. On the day of assay, the cells were harvested with Accutase and counted by the Vi-CELL Cell Viability Analyzers. Cells were resuspended in HEK blue detection medium and a total of 10000 cells were seeded in each well of a 384-well flat bottom plate. Serial dilutions of STING agonists free drugs (1:3 serial dilution starting from 5 uM) was added into treatment wells. After incubation at 37° C. in a CO2 incubator for 24 hours, 20 μl of cell culture medium per well was transferred into a 384-well white (opaque) plate. 50 μl of QUANTI-Luc™ assay solution was then added to each well and the plate was immediately transferred to an ENVISION® plate reader to measure luminescence (Perkin-Elmer). Relative luminescence readings were converted to fold change of signal using untreated cells as controls. Data was fitted with non-linear regression analysis, using log (agonist) vs. response, variable slope, 4-parameter fit equation using GraphPad Prism. Data was expressed as fold change in signal vs. dose of STING agonist in nM with error bars indicating the Standard Deviation (SD) of the quadruplicates. There result was reported in Table 2 as EC50 (the midpoint of the curve, or concentration at which […] of the maximum effect was observed).

For assay [1], the target named is T4, hSTING H232 (Homo sapiens, UniProt Q86WV6). Kind of assay: THP1-Dual KI-hSTING-H232 reporter assay (IRF pathway, secreted Lucia luciferase). The class given is cell-based. Details: host or cells: THP1-Dual KI-hSTING-H232 (from THP1-Dual KO-STING). Particulars: THP1-Dual KI-hSTING-H232 cells, 24 hours; read-out: Reporter assay EC50 (nM) THP-1-H232. How it is done:
as §1, §2

The target of assay [2] is T4, hSTING H232. Kind of assay: Surface plasmon resonance, hSTING H232. Conditions: read-out: hSTING H232 SPR (Kd). It is filed as binding.
For another assay, the target named is hSTING AQ (Homo sapiens, UniProt Q86WV6, G230A/H232R/R293Q). Kind of assay: Surface plasmon resonance, hSTING AQ. It is filed as binding. Particulars: read-out: hSTING AQ SPR (Kd).
Chain of hSTING AQ (Q86WV6 whole entry G230A/H232R/R293Q): as the sequence (Q86WV6 whole entry H232R) above, with G230A, R293Q counted along it

T2 sequence (Q86WV6 whole entry H232R): as the sequence (Q86WV6 whole entry H232R) above
T4 sequence (Q86WV6 whole entry): as the sequence (Q86WV6 whole entry H232R) above, with R232H counted along it
T1 sequence (Q86WV6 whole entry R71H/G230A/H232R/R293Q): as the sequence (Q86WV6 whole entry H232R) above, with R71H, G230A, R293Q counted along it

Take `CCn1nc(C)cc1C(=O)Nc1nc2cc(C(N)=O)cnc2n1CCCCn1c(NC(=O)c2cc(C)nn2CC)nc2cc(C(N)=O)cc(OCCCN3CCC(c4nnc5n4CCNC5)CC3)c21` [Compound 22]: the EC50 on hSTING-HAQ haplotype, on hSTING-R232, at mSTING and at hSTING H232 [1] was above 150 nM throughout. Moreover, the Kd at hSTING WT, on hSTING H232 [2] and on hSTING AQ was at most 20 nM throughout.
On to `CCn1nc(C)cc1C(=O)Nc1nc2cc(C(N)=O)cc(OC)c2n1C/C=C/Cn1c(N2CCn3nc(C)cc3C2=O)nc2cc(C(N)=O)cc(OCCCN3CC4(CNCCO4)C3)c21` [Compound 5, 1-[(E)-4-[5-Carbamoyl-2-(2-methyl-4-oxo-6,7-dihydropyrazolo[1,5-a]pyrazin-5-yl)-7-[3-(5-oxa-2,8-diazaspiro[3.5]nonan-2-yl)propoxy]benzimidazol-1-yl]but-2-enyl]-2-[(2-ethyl-5-methyl-pyrazole-3-carbonyl)amino]-7-methoxy-benzimidazole-5-carboxamide], for which the EC50 on hSTING-HAQ haplotype, at hSTING-R232, on mSTING and on hSTING H232 [1] was above 150 nM throughout. Besides, the Kd on hSTING WT, on hSTING H232 [2] and at hSTING AQ was at least 20 nM each time.
Consider `CCn1nc(C)cc1C(=O)Nc1nc2cc(C(N)=O)cc(OC)c2n1C/C=C/Cn1c(NC(=O)c2cc(C)nn2CC)nc2cc(C(N)=O)cc(OCCCN3CC4(C3)CN(C(=O)CCCCCON)CCO4)c21` [LP-6-1], for which the EC50 at hSTING-HAQ haplotype, at hSTING-R232, on mSTING and on hSTING H232 [1] was at most 50 nM throughout. The Kd at hSTING WT, on hSTING H232 [2] and at hSTING AQ was at most 20 nM throughout.
With `CCn1nc(C)cc1C(=O)Nc1nc2cc(C(N)=O)ccc2n1C/C=C/Cn1c(NC(=O)c2cc(C)nn2CC)nc2cc(C(N)=O)cc(OCCCN3CC4(C3)CN(C(=O)[C@H](CC(C)C)NC(=O)CCCCCO/N=C(\C)c3ccc(C[C@H](N)C(=O)O)cc3)CCO4)c21` [LP-2-3], the EC50 is above 150 nM at hSTING-HAQ haplotype, 50 to 150 nM at hSTING-R232, above 150 nM at mSTING and 50 to 150 nM on hSTING H232 [1]. Further, the Kd on hSTING WT, at hSTING H232 [2] and on hSTING AQ was at most 20 nM in each case.
Turning to `CCn1nc(C)cc1C(=O)Nc1nc2cc(C(N)=O)cc(OC)c2n1C/C=C/Cn1c(NC(=O)Cc2cc(C)nn2C)nc2cc(C(N)=O)cc(OCCCN3CC4(CNCCO4)C3)c21` [Compound 8], the EC50 on hSTING-HAQ haplotype, at hSTING-R232, on mSTING and on hSTING H232 [1] was above 150 nM in each case. The Kd at hSTING WT, on hSTING H232 [2] and on hSTING AQ was at least 20 nM each time.
On to `CCc1nc(C)oc1C(=O)Nc1nc2cc(C(N)=O)cc3c2n1C/C=C/Cn1c(NC(=O)c2oc(C)nc2CC)nc2cc(C(N)=O)cc(c21)OCC1(CNC1)CO3` [Compound 25], for which the EC50 was above 150 nM on hSTING-HAQ haplotype, at most 50 nM on hSTING-R232, at most 50 nM at mSTING and at most 50 nM on hSTING H232 [1].
For `CCc1nc(C)oc1C(=O)Nc1nc2cc(C(N)=O)cc(OCCCN3CC4(C3)CN(C(=O)CNC)CCO4)c2n1C/C=C/Cn1c(NC(=O)c2cc(C)nn2CC)nc2cc(C(N)=O)cc(OC)c21` [Compound 18], the EC50 on hSTING-HAQ haplotype is 50 to 150 nM; at hSTING-R232, 50 to 150 nM; on mSTING it was above 150 nM; at hSTING H232 [1], above 150 nM.
As for `CCn1nc(C)cc1C(=O)Nc1nc2cc(C(N)=O)cc(OC)c2n1C/C=C/Cn1c(NC(=O)c2cc(C)nn2CC)nc2cc(C(N)=O)cc(OCCCN3CC4(C3)CN(C(=O)[C@@H](N)CC(C)C)CCO4)c21` [Compound 16], the EC50 at hSTING-HAQ haplotype, on hSTING-R232, at mSTING and at hSTING H232 [1] was at most 50 nM throughout.
Turning to `CCn1nc(C)cc1C(=O)Nc1nc2cc(C(N)=O)cc3c2n1C/C=C/Cn1c(NC(=O)c2cc(C)nn2CC)nc2cc(C(N)=O)cc(c21)OCC1(CNC1)CO3` [Compound 24, (3E)-7,25-bis[(2-ethyl-5-methyl-pyrazole-3-carbonyl)amino]spiro[14,18-dioxa-1,6,8,24-tetrazapentacyclo[17.6.1.16,9.023,26.013,27]heptacosa-3,7,9,11,13 (27), 19 (26), 20,22,24-nonaene-16,3′-azetidine]-11,21-dicarboxamide; 2,2,2-trifluoroacetic acid], the EC50 on hSTING-HAQ haplotype is above 150 nM; at hSTING-R232, at most 50 nM; at mSTING, above 150 nM; on hSTING H232 [1], 50 to 150 nM.
For `COc1cc(C(N)=O)cc2nc(NC(=O)c3oc(C)nc3C)n(C/C=C/Cn3c(NC(=O)c4oc(C)nc4C)nc4cc(C(N)=O)cc(OCCCN5CCC(c6nnc7n6CCNC7)CC5)c43)c12` [Compound 43, (E)-N-(5-carbamoyl-1-(4-(5-carbamoyl-2-(2,4-dimethyloxazole-5-carboxamido)-7-(3-(4-(5,6,7,8-tetrahydro-[1,2,4]triazolo[4,3-a]pyrazin-3-yl)piperidin-1-yl)propoxy)-1H-benzo[d]imidazol-1-yl)but-2-en-1-yl)-7-methoxy-1H-benzo[d]imidazol-2-yl)-2,4-dimethyloxazole-5-carboxamide], the EC50 on hSTING-HAQ haplotype, on hSTING-R232, at mSTING and on hSTING H232 [1] was above 150 nM in each case.

These data come from patent US20250108048A1, “STING AGONIST COMPOUNDS AND CONJUGATES” (SUTRO BIOPHARMA, INC., priority 2023, published 2025).
